Data: publication PMC11892125 (BMC Chemistry, 2025)

Molecular target: b-CA-II (bovine carbonic anhydrase II) (Bos taurus, UniProt P00921)
Assay: p-nitrophenyl acetate esterase assay, bovine enzyme, absorbance at […] nm
Format: biochemical

Sequence of b-CA-II (bovine carbonic anhydrase II) (P00921 2-260): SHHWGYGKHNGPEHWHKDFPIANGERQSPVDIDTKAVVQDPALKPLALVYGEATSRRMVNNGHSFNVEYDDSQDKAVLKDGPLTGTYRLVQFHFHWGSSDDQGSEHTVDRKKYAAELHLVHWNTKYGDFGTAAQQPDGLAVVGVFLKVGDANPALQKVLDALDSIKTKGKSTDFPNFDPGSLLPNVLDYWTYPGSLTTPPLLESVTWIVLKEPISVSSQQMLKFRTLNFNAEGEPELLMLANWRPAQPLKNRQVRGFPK

IC50: 147 ± 30 nM
SMILES: CCCCCCCC1(O)CS/C(=N\C(=O)c2ccc(Br)cc2)N1c1ccccc1-c1ccccc1 (stereo not shown) [compound 5, (Z)-N-(3-([1,1'-biphenyl]-2-yl)-4-heptyl-4-hydroxythiazolidin-2-ylidene)-4-bromobenzamide]
